According to PubChem BioAssay (NCI):
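Where inhibition never reached the appropriate level, the endpoint shown equals the highest concentration tested. Otherwise, values were interpolated linearly from a five-concentration, 48-hour dose response in 96-well plates. GI50 = concentration required for 50% inhibition of growth. TGI: concentration producing complete growth inhibition.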

What was measured:
Experiment in all cases: NCI anticancer screen, dose series, 48 h
786-0 renal = system: 786-0 renal
A498 renal = system: A498 renal
A549 NSCLC = system: A549 NSCLC
ACHN renal = system: ACHN renal
CAKI-1 renal = system: CAKI-1 renal
COLO 205 colon = system: COLO 205 colon
DU-145 prostate = system: DU-145 prostate
HCC-2998 colon = system: HCC-2998 colon
HCT-116 colon = system: HCT-116 colon
HL-60(TB) leukemia = system: HL-60(TB) leukemia
HOP-62 NSCLC = system: HOP-62 NSCLC
K-562 leukemia = system: K-562 leukemia
KM12 colon = system: KM12 colon
M14 melanoma = system: M14 melanoma
MCF7 breast = system: MCF7 breast
MDA-MB-231 breast = system: MDA-MB-231 breast
MDA-MB-435 = system: MDA-MB-435
MDA-N = system: MDA-N
MOLT-4 leukemia = system: MOLT-4 leukemia
NCI-H226 lung = system: NCI-H226 lung
NCI-H460 lung = system: NCI-H460 lung
OVCAR-3 ovarian = system: OVCAR-3 ovarian
OVCAR-4 ovarian = system: OVCAR-4 ovarian
PC-3 prostate = system: PC-3 prostate
RPMI-8226 leukemia = system: RPMI-8226 leukemia
RXF 393 renal = system: RXF 393 renal
SF-295 CNS = system: SF-295 CNS
SK-MEL-2 melanoma = system: SK-MEL-2 melanoma
SK-MEL-28 melanoma = system: SK-MEL-28 melanoma
SK-MEL-5 melanoma = system: SK-MEL-5 melanoma
SK-OV-3 ovarian = system: SK-OV-3 ovarian
SN12C renal = system: SN12C renal
SNB-19 CNS = system: SNB-19 CNS
SNB-75 CNS = system: SNB-75 CNS
SW-620 colon = system: SW-620 colon
T-47D breast = system: T-47D breast
TK-10 renal = system: TK-10 renal
U251 CNS = system: U251 CNS
UACC-257 melanoma = system: UACC-257 melanoma
UACC-62 melanoma = system: UACC-62 melanoma
UO-31 renal = system: UO-31 renal
BT-549 breast = system: BT-549 breast
CCRF-CEM leukemia = system: CCRF-CEM leukemia
EKVX NSCLC = system: EKVX NSCLC
HCT-15 colon = system: HCT-15 colon
HOP-92 NSCLC = system: HOP-92 NSCLC
HS 578T breast = system: HS 578T breast
HT29 colon = system: HT29 colon
IGROV1 ovarian = system: IGROV1 ovarian
LOX IMVI melanoma = system: LOX IMVI melanoma
MALME-3M melanoma = system: MALME-3M melanoma
NCI-H23 lung = system: NCI-H23 lung
NCI-H522 lung = system: NCI-H522 lung
NCI/ADR-RES ovarian = system: NCI/ADR-RES ovarian
OVCAR-5 ovarian = system: OVCAR-5 ovarian
OVCAR-8 ovarian = system: OVCAR-8 ovarian
SF-268 CNS = system: SF-268 CNS
SF-539 CNS = system: SF-539 CNS
SR leukemia = system: SR leukemia

`COC(=O)C1=C2SCc3ccc(cc3)CSC3=C(C(=O)OC)SC(=C(S2)S1)S3` gave a TGI (786-0 renal) of over 100 µM, a TGI (A498 renal) of over 100 µM and a TGI (A549 NSCLC) of over 100 µM. The TGI (ACHN renal) was over 100 µM, the TGI (CAKI-1 renal) was over 100 µM and the TGI (COLO 205 colon) was over 100 µM. It also gave a TGI (DU-145 prostate) of over 100 µM, a TGI (HCC-2998 colon) of over 100 µM and a TGI (HCT-116 colon) of over 100 µM. The TGI (HL-60(TB) leukemia) was 9.51 µM, the TGI (HOP-62 NSCLC) was over 100 µM and the TGI (K-562 leukemia) was over 100 µM. The TGI (KM12 colon) was over 100 µM, the TGI (M14 melanoma) was over 100 µM and the TGI (MCF7 breast) was over 100 µM. It also gave a TGI (MDA-MB-231 breast) of over 100 µM, a TGI (MDA-MB-435) of over 100 µM and a TGI (MDA-N) of over 100 µM. For the same molecule, the TGI (MOLT-4 leukemia) was over 100 µM, the TGI (NCI-H226 lung) was over 100 µM and the TGI (NCI-H460 lung) was over 100 µM. It also gave a TGI (OVCAR-3 ovarian) of over 100 µM, a TGI (OVCAR-4 ovarian) of over 100 µM and a TGI (PC-3 prostate) of over 100 µM. The TGI (RPMI-8226 leukemia) was over 100 µM, the TGI (RXF 393 renal) was over 100 µM and the TGI (SF-295 CNS) was over 100 µM. For the same molecule, the TGI (SK-MEL-2 melanoma) was over 100 µM, the TGI (SK-MEL-28 melanoma) was over 100 µM and the TGI (SK-MEL-5 melanoma) was over 100 µM. The TGI (SK-OV-3 ovarian) was over 100 µM, the TGI (SN12C renal) was over 100 µM and the TGI (SNB-19 CNS) was over 100 µM. It also gave a TGI (SNB-75 CNS) of over 100 µM, a TGI (SW-620 colon) of over 100 µM and a TGI (T-47D breast) of over 100 µM. The TGI (TK-10 renal) was over 100 µM, the TGI (U251 CNS) was over 100 µM and the TGI (UACC-257 melanoma) was over 100 µM. It also gave a TGI (UACC-62 melanoma) of over 100 µM and a TGI (UO-31 renal) of over 100 µM.
In the case of `Clc1ccc(C2c3ccccc3-c3nccn32)c(Cl)c1` (configuration not stated), the GI50 (786-0 renal) is reported as 19.5 µM, the TGI (786-0 renal) is reported as over 55.2 µM and the GI50 (A498 renal) is reported as 12.2 µM. It also gave a TGI (A498 renal) of 24.6 µM, a GI50 (A549 NSCLC) of 13.4 µM and a TGI (A549 NSCLC) of 36.7 µM. The GI50 (ACHN renal) was 12.3 µM, the TGI (ACHN renal) was 26.9 µM and the GI50 (BT-549 breast) was 9.01 µM. It also gave a TGI (BT-549 breast) of 21.7 µM, a GI50 (CAKI-1 renal) of 1.98 µM and a TGI (CAKI-1 renal) of 19 µM. The GI50 (CCRF-CEM leukemia) was 2.77 µM, the TGI (CCRF-CEM leukemia) was over 44.1 µM and the GI50 (COLO 205 colon) was 13.5 µM. It also gave a TGI (COLO 205 colon) of 28 µM, a GI50 (DU-145 prostate) of 13.6 µM and a TGI (DU-145 prostate) of 26.4 µM. It also gave a GI50 (EKVX NSCLC) of 5.28 µM, a TGI (EKVX NSCLC) of 19.3 µM and a GI50 (HCC-2998 colon) of 13.9 µM. For the same molecule, the TGI (HCC-2998 colon) was 28.1 µM, the GI50 (HCT-116 colon) was 9.7 µM and the TGI (HCT-116 colon) was 39.2 µM. For the same molecule, the GI50 (HCT-15 colon) was 11.5 µM, the TGI (HCT-15 colon) was 24.4 µM and the GI50 (HL-60(TB) leukemia) was 2.25 µM. It also gave a TGI (HL-60(TB) leukemia) of 18.4 µM, a GI50 (HOP-62 NSCLC) of 16.9 µM and a TGI (HOP-62 NSCLC) of 44.2 µM. It also gave a GI50 (HOP-92 NSCLC) of 9.94 µM, a TGI (HOP-92 NSCLC) of 25.7 µM and a GI50 (HS 578T breast) of 13.6 µM. It also gave a TGI (HS 578T breast) of 35.5 µM, a GI50 (HT29 colon) of 9.87 µM and a TGI (HT29 colon) of 24.6 µM. It also gave a GI50 (IGROV1 ovarian) of 11.7 µM, a TGI (IGROV1 ovarian) of over 47.9 µM and a GI50 (K-562 leukemia) of 1.37 µM. The TGI (K-562 leukemia) was over 40.5 µM, the GI50 (KM12 colon) was 13.2 µM and the TGI (KM12 colon) was 26.6 µM. It also gave a GI50 (LOX IMVI melanoma) of 11.2 µM, a TGI (LOX IMVI melanoma) of 23.9 µM and a GI50 (M14 melanoma) of 21.2 µM. For the same molecule, the TGI (M14 melanoma) was 62.4 µM, the GI50 (MALME-3M melanoma) was 10.6 µM and the TGI (MALME-3M melanoma) was 23.1 µM. For the same molecule, the GI50 (MCF7 breast) was 12.5 µM, the TGI (MCF7 breast) was 25.7 µM and the GI50 (MDA-MB-231 breast) was 11.5 µM. For the same molecule, the TGI (MDA-MB-231 breast) was 26 µM, the GI50 (MDA-MB-435) was 10.6 µM and the TGI (MDA-MB-435) was 22.5 µM. For the same molecule, the GI50 (MOLT-4 leukemia) was 2.8 µM, the TGI (MOLT-4 leukemia) was 20.5 µM and the GI50 (NCI-H226 lung) was 6.92 µM. It also gave a TGI (NCI-H226 lung) of 26 µM, a GI50 (NCI-H23 lung) of 6.56 µM and a TGI (NCI-H23 lung) of 35.5 µM. The GI50 (NCI-H460 lung) was 12.2 µM, the TGI (NCI-H460 lung) was 24.6 µM and the GI50 (NCI-H522 lung) was 11.4 µM. For the same molecule, the TGI (NCI-H522 lung) was 31.7 µM, the GI50 (NCI/ADR-RES ovarian) was 6.57 µM and the TGI (NCI/ADR-RES ovarian) was 24 µM. The GI50 (OVCAR-3 ovarian) was 11 µM, the TGI (OVCAR-3 ovarian) was 22.9 µM and the GI50 (OVCAR-4 ovarian) was 3.6 µM. For the same molecule, the TGI (OVCAR-4 ovarian) was 17.4 µM, the GI50 (OVCAR-5 ovarian) was 14.8 µM and the TGI (OVCAR-5 ovarian) was 30.1 µM. It also gave a GI50 (OVCAR-8 ovarian) of 12.6 µM, a TGI (OVCAR-8 ovarian) of 32.5 µM and a GI50 (PC-3 prostate) of 11.6 µM. It also gave a TGI (PC-3 prostate) of 31.3 µM, a GI50 (RPMI-8226 leukemia) of 0.941 µM and a TGI (RPMI-8226 leukemia) of 8.48 µM. It also gave a GI50 (RXF 393 renal) of 14.6 µM, a TGI (RXF 393 renal) of 30.6 µM and a GI50 (SF-268 CNS) of 14 µM. For the same molecule, the TGI (SF-268 CNS) was 27.4 µM, the GI50 (SF-295 CNS) was 4.52 µM and the TGI (SF-295 CNS) was 18.3 µM. For the same molecule, the GI50 (SF-539 CNS) was 15 µM, the TGI (SF-539 CNS) was 28.5 µM and the GI50 (SK-MEL-2 melanoma) was 11.3 µM. For the same molecule, the TGI (SK-MEL-2 melanoma) was 26 µM, the GI50 (SK-MEL-28 melanoma) was 13.6 µM and the TGI (SK-MEL-28 melanoma) was 26.5 µM. The GI50 (SK-MEL-5 melanoma) was 6.3 µM, the TGI (SK-MEL-5 melanoma) was 18.8 µM and the GI50 (SK-OV-3 ovarian) was 14.7 µM. The TGI (SK-OV-3 ovarian) was 33.2 µM, the GI50 (SN12C renal) was 13.8 µM and the TGI (SN12C renal) was 30.6 µM. For the same molecule, the GI50 (SNB-19 CNS) was 13.2 µM, the TGI (SNB-19 CNS) was 27.4 µM and the GI50 (SNB-75 CNS) was 11.2 µM. The TGI (SNB-75 CNS) was 23.7 µM, the GI50 (SR leukemia) was 2.34 µM and the TGI (SR leukemia) was 30 µM. The GI50 (SW-620 colon) was 13.6 µM, the TGI (SW-620 colon) was 26.5 µM and the GI50 (T-47D breast) was 5.13 µM. It also gave a TGI (T-47D breast) of 32.8 µM, a GI50 (TK-10 renal) of 13.7 µM and a TGI (TK-10 renal) of 28.6 µM. The GI50 (U251 CNS) was 13.4 µM, the TGI (U251 CNS) was 26.2 µM and the GI50 (UACC-257 melanoma) was 12.5 µM. The TGI (UACC-257 melanoma) was 28.9 µM, the GI50 (UACC-62 melanoma) was 9.66 µM and the TGI (UACC-62 melanoma) was 23 µM. It also gave a GI50 (UO-31 renal) of 7.37 µM and a TGI (UO-31 renal) of 23.3 µM.
